Key:
[1] = system: cell membranes of fixed cells; assay: In vitro labelling of fixed cells; type: cell-based; settings: formaldehyde-fixed cells, 5 μM in 1×PBS, 5 minutes at 37° C.
Description: Staining the cell membranes of fixed cells is also compatible with KAYA1. For staining, the cells are cultured at the same conditions as described for in vivo labelling. The cells are fixed with HEPEM buffer containing 3.7% formaldehyde, 65 mM PIPES, 30 mM HEPES, 10 mM EGTA, 2 mM MgCl2, pH 6.9 for 15 min. Then the cells are washed twice with 1×PBS for 7.5 min. Finally the cell membranes are stained with KAYA1 (5 μM in 1×PBS) for 5 minutes at 37° C., washed with 1×PBS and covered with Vectashield.
(§1) The System used was a Leica DM IRBE (TSC/SP2) microscope operating with a helium/neon laser. Detection of all probes was visualized with the laser emission line 633 nm, the detection window was realized between 650 nm-800 nm.

[2] = system: membranes of live HeLa cells; assay: In vivo labelling of live cells, confocal laser scanning microscopy; type: cell-based; settings: live HeLa cells after incubation with KAYA1 labelling solution (FIGS. 2a to 2c)
Description: A protocol for the labelling of live cells was optimized for cultured HeLa cells (epithelial, cervical carcinoma), for LnCAP (Prostatacancer, fibroblasts) and VH7 (foreskin fibroblasts) that are adhering to coverslips. Cells are cultured on coverslips in DEMEM (VH7, HeLa) RPMI (LnCAP) with 10% foetal calf serum, 1 mM glutamine and antibiotics and incubated at 37° C. in an atmosphere of 5% CO2. A 5 μM solution of KAYA1 is prepared in a HEPES-Glucose buffer medium containing 115 mM NaCl, 1.2 mM CaCl2, 1.2 mM MgCl2, 1.2 mM K2HPO4, 20 mM HEPES, 10 mM Glucose, pH 7.4. After removing the cell medium the cells are incubated with the labeling solution for 1 minute at 37° C. The labeling solution is removed, the cells washed in 1×PBS and incubated with the cell medium, prior to analysis.
as §1
CLSM allows the blur from out of focus regions of the fluorescent specimen to be blocked, resulting in crisp, sharp images from well defined planes in the axial direction. Therefore the images presented here show well defined optical sections in z-axis of the microscope.

Solubility of KAYA1 = type: physicochemical
Description: The Boc protecting group of compound A is cleaved with trifluoro acetic acid (6.7 ml, 87 mmol) in methanol (3 ml, 74 mmol) for 18 hours at room temperature. After evaporation and recrystallization in anisole KAYA1 was characterized by electrospray mass spectrometry: (Mfound 389.1245 m/e, 391.1611 m/e, Mcalc 388.12 m/e, 390.12 m/e); 1H NMR spectroscopy (CD3OD): S=1.39 ppm (m, 4H), 1.59 ppm (m, 2H), 1.64 ppm (m, 2H), 2.80 ppm (t, 2H), 3.24 ppm (t, 2H), 7.03 ppm (d, 1H), 7.08 ppm (d, 1H), 7.42 ppm (d, 1H), 7.65 ppm (d, 1H), 7.92 ppm (s, 1H); UV-Vis spectrophotometry (Absmax: 574 nm and 623 nm) and fluorimetry (Emmax: 660 nm).

HeLa cell = assay: Colocalization experiments with wheat-germ agglutinin (WGA); type: cell-based; settings: in vivo stains with KAYA1 compared with WGA in fixed cells (FIGS. 2a to 2c, 3a to 3c)
Text: Wheat-germ agglutinin (WGA) is a glycoprotein (lectin) that recognizes and binds to specific glycoconjugates such as N-acetylneuraminic acid, N-acetyl glucosamine, membrane glycoprotein, chitin, cartilage, glucosamineglycans, glycolipids, and glycoproteins with sialic acid residues (cf. Monsigny M., Roche A-C., Sene C., raget-Dana R., Delmotte F., Sugar-Lectin Interactions: How does Wheat-germ Agglutinin bind Sialoglycoconjugates?, Eur. J. Biochem., 1980, (104), 147-153; Wright C S., Crystal structure of a wheat germ agglutinin/glycophorin-sialoglycopeptide receptor complex. Structural Basis for cooperative lectin-cell binding, J. Biol. Chem., 1992, 267(20), 14345-52). WGA is commonly used to stain the golgi apparatus, nuclear envelop and plasma membrane of fixed cells.
For the colocalization experiments the cells are stained with KAYA1 at the same conditions as described for in vivo labelling. Then the cells are fixed with HEPEM buffer and the membranes of the cells are permeabilized 30 min at 4° C. with 50 ml 1×PBS containing 50 mg Saponin. After washing the cells with 1×PBS for 5 min at room temperature the cells are incubated 15 min with 50 μg/ml WGA at 37° C. Finally the cells are washed with 1×PBS and covered with Vectashield, prior to analysis.

- solubility in methanol (Solubility of KAYA1; methanol): soluble
- solubility in water (Solubility of KAYA1; water): moderately soluble
Structure (SMILES): NCCCCCCNc1ccc(O)c2c1C(=O)c1c(O)ccc(Cl)c1C2=O [KAYA1, 1-(6-amino-hexylamino)-5-chloro-4,8-dihydroxy-anthraquinone]
- staining of cell membranes of fixed cells [1]: compatible
- membrane structures visualized by the dye [2]: visualizes the cytoplasmatic membrane, the nuclear membrane and the membrane of certain organelles such as endoplasmatic reticulum and golgi apparatus
- similarity of stained regions with binding regions of WGA (HeLa cell): high similarity with the specific binding regions of WGA

Reference: US8058460B2, “Near infrared fluorophore for the selective labelling of membranes in cells” (Universität Heidelberg, priority 2006, dated 2011)
